Source: patent US20160296499A1, “Spiroindoline Antiparasitic Derivatives” (ZOETIS SERVICES LLC, priority 2013, published 2016)
Where two headings read alike, the source gives them in different places.

Tests used:
Haemonchus contortus L3 = experiment: Haemonchus contortus, Larvae Stage 3 (HcL3) In Vitro Assay; conditions: Haemonchus contortus
[1] = system: Dirofilaria immitis microfilariae; experiment: Dirofilaria immitis, Microfilariae (DiMF) In Vitro Assay; conditions: Dirofilaria immitis
[2] = target: T1, bovine vesicular acetylcholine transporter (VAChT) (Bos taurus, UniProt E1BK36); experiment: Radioligand Binding Assay; conditions: Bovine binding Ki, CHO-K1 membranes with recombinant bovine VAChT, [3H]Compound X6 0.3 nM
T1 sequence (E1BK36 1-524): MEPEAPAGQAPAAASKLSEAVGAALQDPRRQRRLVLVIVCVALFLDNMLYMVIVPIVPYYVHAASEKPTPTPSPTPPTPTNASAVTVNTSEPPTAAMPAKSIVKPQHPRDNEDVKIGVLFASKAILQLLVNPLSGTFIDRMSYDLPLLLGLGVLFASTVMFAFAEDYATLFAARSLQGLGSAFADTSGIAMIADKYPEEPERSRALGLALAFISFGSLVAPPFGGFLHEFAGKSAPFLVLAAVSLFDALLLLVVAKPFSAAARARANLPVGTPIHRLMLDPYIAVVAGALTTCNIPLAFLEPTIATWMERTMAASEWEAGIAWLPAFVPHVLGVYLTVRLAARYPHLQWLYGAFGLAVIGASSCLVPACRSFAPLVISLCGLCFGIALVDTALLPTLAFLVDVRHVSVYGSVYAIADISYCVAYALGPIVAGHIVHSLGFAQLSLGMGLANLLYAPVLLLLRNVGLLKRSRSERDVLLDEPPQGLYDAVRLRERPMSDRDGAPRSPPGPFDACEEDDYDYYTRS

[3] = 96 hours, 37° C., read-out: HcL3 MEC
[4] = 96 h, read-out: HcL3 MEC, Minimal Effective Concentration whereby worm motility is inhibited by approximately 70%, 37° C., tested 0.001-100 μM
[5] = 72 h, read-out: Di MF, MEC, decrease in microfilariae motility by visual assessment, curve starting at 100 μM

| Compound | minimal effective concentration (Haemonchus contortus L3; [3]) | minimal effective concentration ([1]; 72 hours, read-out: Di MF) | Ki [2] | minimal effective concentration (Haemonchus contortus L3; [4]) | minimal effective concentration [1, 5] |
| --- | --- | --- | --- | --- | --- |
| O=C(NCc1ccnc(Cl)c1)N1CC2(CCN(C/C=C/c3ccc(F)cc3)CC2)c2cc(C(F)(F)F)ccc21 [Example 154, (E)-N-((2-chloropyridin-4-yl)methyl)-1′-(3-(4-fluorophenyl)allyl)-5-(trifluoromethyl)spiro[indoline-3,4′-piperidine]-1-carboxamide] | 6.6 µM | 2.8 µM | 0.283 µM |  |  |
| CC1(C)Oc2cc3c(cc2O1)C1(CCN(C/C=C/c2ccc(Cl)cc2)CC1)CN3C(=O)NCc1ccnc(Cl)c1 [Example 8, (E)-1-(3-(4-chlorophenyl)allyl)-N-((2-chloropyridin-4-yl)methyl)-2′,2′-dimethylspiro[piperidine-4,7′-[1,3]dioxolo[4,5-f]indole]-5′(6′H)-carboxamide] | 100 µM | 10 µM | 1.52 µM |  |  |
| O=C(NCc1ccnc(Cl)c1)N1CC2(CCN(C/C=C/c3ccc(Cl)cc3)CC2)c2cc(-n3ccccc3=O)ccc21 [Example 74, (E)-1′-(3-(4-chlorophenyl)allyl)-N-((2-chloropyridin-4-yl)methyl)-5-(2-oxopyridin-1(2H)-yl)spiro[indoline-3,4′-piperidine]-1-carboxamide] |  |  | 11.6 µM | 100 µM | 2.4 µM |
| O=C(NCc1ccnc(Cl)c1)N1CC2(CCN(C/C=C/c3ccc(F)cc3)CC2)c2cc(OC(F)(F)F)ccc21 [Example 163, (E)-N-((2-chloropyridin-4-yl)methyl)-1′-(3-(4-fluorophenyl)allyl)-5-(trifluoromethoxy)spiro[indoline-3,4′-piperidine]-1-carboxamide] | 10.1 µM | 2.5 µM | 0.554 µM |  |  |
| O=C(NCc1ccnc(F)c1)N1CC2(CCN(C/C=C/c3ccc(Cl)cc3)CC2)c2cc(Cl)c(Cl)cc21 [Example 70, (E)-5,6-dichloro-1′-(3-(4-chlorophenyl)allyl)-N-((2-fluoropyridin-4-yl)methyl)spiro[indoline-3,4′-piperidine]-1-carboxamide] |  |  | 0.252 µM | 3.3 µM | 7.6 µM |
| O=C(NCc1ccnc(Cl)c1)N1CC2(CCN(Cc3ccc4cc(F)ccc4c3)CC2)c2cc(Cl)ccc21 [Example 139, 5-chloro-N-((2-chloropyridin-4-yl)methyl)-1′-((6-fluoronaphthalen-2-yl)methyl)spiro[indoline-3,4′-piperidine]-1-carboxamide] |  |  | 0.0201 µM | 3.3 µM | 33 µM |
| CC(C)CNC(=O)N1CC2(CCN(C/C=C/c3ccc(Cl)c(Cl)c3)CC2)c2c1ccc1scnc21 [Example 31, (E)-1-(3-(3,4-dichlorophenyl)allyl)-N-isobutylspiro[piperidine-4,8′-thiazolo[4,5-e]indole]-6′(7′H)-carboxamide] |  |  | 0.846 µM | 100 µM | 3.3 µM |
| COc1ccc(-c2ccc3c(c2)C2(CCN(C/C=C/c4ccc(Cl)cc4)CC2)CN3C(=O)NCc2ccnc(Cl)c2)cn1 [Example 119, 1′-[(E)-3-(4-chlorophenyl)allyl]-N-[(2-chloro-4-pyridyl)methyl]-5-(6-methoxy-3-pyridyl)spiro[indoline-3,4′-piperidine]-1-carboxamide] |  |  | 0.177 µM | 100 µM | 10 µM |
| O=C(NCc1ccnc(Cl)c1)N1CC2(CCN(C/C=C/c3ccc(C(F)(F)F)cn3)CC2)c2cc(C(F)(F)F)ccc21 [Example 151, (E)-N-((2-chloropyridin-4-yl)methyl)-5-(trifluoromethyl)-1′-(3-(5-(trifluoromethyl)pyridin-2-yl)allyl)spiro[indoline-3,4′-piperidine]-1-carboxamide] |  |  | 0.518 µM | 5.7 µM | 4.3 µM |
